Experimental data taken from patent US20220211662A1, “METHOD OF TREATING CANCER BY ADMINISTERING AN EPIGALLOCATECHIN GALLATE COMBINED WITH TYROSINE KINASE INHIBITOR” (Yunnan Daye Dihong Biotechnology Co., Ltd., priority 2019, published 2022).

Tests used:
A431 transplanted tumor = experiment: A431 heterotransplanted tumor model in nude mouse
NCI-H1666 cells = experiment: MTT cell viability, NCI-H1666 cells; type: cell-based, human; conditions: 24 hours
From the text: Detection Principle: MTT method to detect cell viability
A container is best wrapped with aluminum foil paper.
Otherwise, it is difficult to reflect the real situation. […] A sample is prevented from being volatilized.

Row | SMILES | body weight of A431 tumor-bearing mouse (A431 transplanted tumor; compared with control group) | tumor volume growth (A431 transplanted tumor; A431 transplanted tumor, combined use compared with Gefitinib alone treatment group) | growth of NCI-H1666 cells (NCI-H1666 cells; in the presence of EGF) | survival rate / growth of NCI-H1666 cells (NCI-H1666 cells; without EGF)
1 | O=C(O[C@@H]1Cc2c(O)cc(O)cc2O[C@@H]1c1cc(O)c(O)c(O)c1)c1cc(O)c(O)c(O)c1 [EGCG, EPIGALLOCATECHIN GALLATE] | promote the weight increase |  |  | 
2 | COc1cc2ncnc(Nc3ccc(F)c(Cl)c3)c2cc1OCCCN1CCOCC1 [Gefitinib] |  | better inhibitory effect | does not have a significant inhibitory effect | significant inhibitory effect
